PubChem BioAssay AID228 (DTP/NCI, 2004)
Values joined by “and” are separate entries in the source; they are usually repeats but may differ in a detail not shown here. Equal entries are not always repeated. Records with an inconclusive call do not appear. Starred links: 1 amine or outer side, 2 acyl side, 3 side chain; linkers in the order of their positions; H or OH if unused. Positions of bridges follow the written chain, without caps; N, C: chain ends. Non-standard residues stand in square brackets, D forms with d. Residues, ends and D or L forms follow the SMILES beside them. *: point of attachment. X1 = CC(C)C(C)C(C(=O)[*:2])N(C)[*:1]; Picolinoyl(3-OH) = O=C(c1ncccc1O)*; NMePhg = CN[CH](C(=O)O)c1ccccc1; Hyp = O=C(O)[CH]1C[CH](O)CN1; Sar = CNCC(=O)O

Test system: BDF1 mice, Friend leukemia sc, tumor weight T/C
Assay: NCI In Vivo Anticancer Drug Screen. Data for tumor model Friend Virus Leukemia (Solid) (subcutaneous) in B6D2F1 (BDF1) mice
Details: endpoint: mean tumor weight, higher = larger tumour
Experimental: The antitumor activity of compounds was measured in mice bearing transplantable tumors. Survival or tumor size were measured and the results are expressed as the measurement made in the treated group (T) divided by the measurement made in the vehicle treated control group (C). The tumor model used in this assay is Friend Virus Leukemia (Solid) (subcutaneous) in B6D2F1 (BDF1) mice

[1] = dose: 100.0 mg/kg/injection, schedule: Q01DX011 (ip), vehicle: carboxymethylcellulose (CMC)
[2] = dose: 200.0 mg/kg/injection, schedule: Q01DX011 (ip), vehicle: carboxymethylcellulose (CMC)
[3] = dose: 400.0 mg/kg/injection, schedule: Q01DX011 (ip), vehicle: carboxymethylcellulose (CMC)
[4] = dose: 25.0 mg/kg/injection, schedule: Q01DX011 (ip), vehicle: carboxymethylcellulose (CMC)
[5] = dose: 50.0 mg/kg/injection, schedule: Q01DX011 (ip), vehicle: carboxymethylcellulose (CMC)
[6] = dose: 12.5 mg/kg/injection, schedule: Q01DX011 (ip), vehicle: carboxymethylcellulose (CMC)
[7] = dose: 500.0 mg/kg/injection, schedule: Q01DX011 (ip), vehicle: carboxymethylcellulose (CMC)
[8] = dose: 250.0 mg/kg/injection, schedule: Q01DX011 (ip), vehicle: carboxymethylcellulose (CMC)
[9] = dose: 5.0 mg/kg/injection, schedule: Q01DX011 (ip), vehicle: carboxymethylcellulose (CMC)

COc1ccccc1NC(=O)CSC(N)=O
T/C [1]: 91 % of control
T/C [2]: 104 % of control
T/C [3]: 71 % of control

CC(C)Sc1nc(N)nc2nc[nH]c12
T/C (dose: 3.0 mg/kg/injection, schedule: Q01DX011 (ip), vehicle: carboxymethylcellulose (CMC)): 97 % of control
T/C [4]: 14 % of control
T/C [5]: 2 % of control

CCCn1cnc2c(SCc3ccccc3Cl)nc(N)nc21
T/C [5]: 57 % of control
T/C [1]: 41 % of control
T/C [2]: 12 % of control
T/C [3]: 5 % of control

CN1CCC23c4c5ccc(O)c4OC2C(O)C=CC3C1C5 (configuration not stated)
T/C (dose: 62.0 mg/kg/injection, schedule: Q01DX011 (ip), vehicle: saline): 116 % of control
T/C (dose: 125.0 mg/kg/injection, schedule: Q01DX011 (ip), vehicle: saline): 172 % of control
T/C (dose: 250.0 mg/kg/injection, schedule: Q01DX011 (ip), vehicle: saline): 118 % of control

C1CN1c1nc(N2CC2)nc(N2CC2)n1
T/C (dose: 0.05 mg/kg/injection, schedule: Q01DX011 (ip), vehicle: carboxymethylcellulose (CMC)): 164 % of control and 233 % of control
T/C (dose: 0.1 mg/kg/injection, schedule: Q01DX011 (ip), vehicle: carboxymethylcellulose (CMC)): 161 % of control and 293 % of control
T/C (dose: 0.12 mg/kg/injection, schedule: Q01DX011 (ip), vehicle: carboxymethylcellulose (CMC)): 114 % of control
T/C (dose: 0.15 mg/kg/injection, schedule: Q01DX011 (ip), vehicle: carboxymethylcellulose (CMC)): 41 % of control
T/C (dose: 0.2 mg/kg/injection, schedule: Q01DX011 (ip), vehicle: carboxymethylcellulose (CMC)): 169 % of control and 256 % of control
T/C (dose: 0.2 mg/kg/injection, schedule: Q01DX011 (ip), vehicle: saline): 61 % of control and 76 % of control
T/C (dose: 0.3 mg/kg/injection, schedule: Q01DX011 (ip), vehicle: carboxymethylcellulose (CMC)): 26 % of control
T/C (dose: 0.3 mg/kg/injection, schedule: Q01DX011 (ip), vehicle: saline): 49 % of control
T/C (dose: 0.4 mg/kg/injection, schedule: Q01DX011 (ip), vehicle: carboxymethylcellulose (CMC)): 68 % of control and 85 % of control
T/C (dose: 0.4 mg/kg/injection, schedule: Q01DX011 (ip), vehicle: saline): 31 % of control and 35 % of control
T/C (dose: 0.6 mg/kg/injection, schedule: Q01DX011 (ip), vehicle: carboxymethylcellulose (CMC)): 24 % of control

OCC1OC(Oc2ccc(O)cc2)C(O)C(O)C1O (configuration not stated)
T/C (dose: 25.0 mg/kg/injection, schedule: Q01DX011 (ip), vehicle: saline): 84 % of control
T/C (dose: 50.0 mg/kg/injection, schedule: Q01DX011 (ip), vehicle: saline): 97 % of control
T/C (dose: 100.0 mg/kg/injection, schedule: Q01DX011 (ip), vehicle: saline): 97 % of control
T/C (dose: 200.0 mg/kg/injection, schedule: Q01DX011 (ip), vehicle: saline): 75 % of control

CCc1nc(N)nc(N)c1-c1ccc(Cl)cc1
T/C (dose: 6.25 mg/kg/injection, schedule: Q01DX011 (ip), vehicle: carboxymethylcellulose (CMC)): 124 % of control
T/C [6]: 85 % of control
T/C [4]: 113 % of control
T/C [5]: 95 % of control

CC(C)=CC1C(C(=O)OCc2ccc(C)cc2C)C1(C)C (configuration not stated)
T/C (dose: 87.5 mg/kg/injection, schedule: Q01DX011 (ip), vehicle: carboxymethylcellulose (CMC)): 107 % of control
T/C (dose: 175.0 mg/kg/injection, schedule: Q01DX011 (ip), vehicle: carboxymethylcellulose (CMC)): 83 % of control
T/C (dose: 350.0 mg/kg/injection, schedule: Q01DX011 (ip), vehicle: carboxymethylcellulose (CMC)): 53 % of control
T/C [7]: 46 % of control

CC(C)CC1NC(=O)C(NC(=O)c2ncccc2O)C(C)OC(=O)C(c2ccccc2)N(C)C(=O)C(C)NC(=O)C(C(C)C(C)C)N(C)C(=O)CN(C)C(=O)C2CC(O)CN2C1=O (configuration not stated) ({Picolinoyl(3-OH)}-TL[Hyp][Sar][X1]A[NMePhg]; ester 1-C; configuration not given here)
T/C [4]: 57 % of control
T/C [5]: 49 % of control
T/C [1]: 64 % of control
T/C [2]: 39 % of control

N#[N+]c1cnc([O-])[nH]c1=O
T/C (dose: 1.3 mg/kg/injection, schedule: Q01DX011 (ip), vehicle: carboxymethylcellulose (CMC)): 113 % of control
T/C (dose: 11.5 mg/kg/injection, schedule: Q01DX011 (ip), vehicle: carboxymethylcellulose (CMC)): 49 % of control

Nc1ncnc2c1ncn2C1CCCO1 (configuration not stated)
T/C [5]: 111 % of control
T/C [1]: 54 % of control

CNC=O
T/C [6]: 80 % of control
T/C [4]: 57 % of control and 38 % of control
T/C (dose: 41.62 mg/kg/injection, schedule: Q01DX011 (ip), vehicle: carboxymethylcellulose (CMC)): 124 % of control
T/C (dose: 42.0 mg/kg/injection, schedule: Q01DX011 (ip), vehicle: carboxymethylcellulose (CMC)): 92 % of control
T/C (dose: 43.0 mg/kg/injection, schedule: Q01DX011 (ip), vehicle: carboxymethylcellulose (CMC)): 79 % of control
T/C [5]: 43 % of control
T/C (dose: 83.25 mg/kg/injection, schedule: Q01DX011 (ip), vehicle: carboxymethylcellulose (CMC)): 92 % of control
T/C (dose: 85.0 mg/kg/injection, schedule: Q01DX011 (ip), vehicle: carboxymethylcellulose (CMC)): 91 % of control
T/C (dose: 86.0 mg/kg/injection, schedule: Q01DX011 (ip), vehicle: carboxymethylcellulose (CMC)): 109 % of control
T/C [1]: 53 % of control
T/C (dose: 176.5 mg/kg/injection, schedule: Q01DX011 (ip), vehicle: carboxymethylcellulose (CMC)): 91 % of control
T/C [2]: 39 % of control
T/C [8]: 84 % of control
T/C (dose: 275.0 mg/kg/injection, schedule: Q01DX011 (ip), vehicle: carboxymethylcellulose (CMC)): 57 % of control
T/C (dose: 343.0 mg/kg/injection, schedule: Q01DX011 (ip), vehicle: carboxymethylcellulose (CMC)): 41 % of control

CCN(CC)c1ccc2cc3ccc(=[N+](CC)CC)cc-3oc2c1
T/C [9]: 102 % of control

CS(=O)(=O)OCCCCCCCCCOS(C)(=O)=O
T/C (dose: 18.75 mg/kg/injection, schedule: Q01DX011 (ip), vehicle: carboxymethylcellulose (CMC)): 81 % of control
T/C (dose: 37.5 mg/kg/injection, schedule: Q01DX011 (ip), vehicle: carboxymethylcellulose (CMC)): 51 % of control
T/C (dose: 75.0 mg/kg/injection, schedule: Q01DX011 (ip), vehicle: carboxymethylcellulose (CMC)): 49 % of control

Clc1ccc(C(c2ccccc2Cl)C(Cl)Cl)cc1 (configuration not stated)
T/C (dose: 375.0 mg/kg/injection, schedule: Q01DX011 (sc), vehicle: steriod suspending solution): 163 % of control
T/C (dose: 500.0 mg/kg/injection, schedule: Q01DX011 (sc), vehicle: steriod suspending solution): 210 % of control
T/C (dose: 750.0 mg/kg/injection, schedule: Q01DX011 (sc), vehicle: steriod suspending solution): 155 % of control

CCCCCCCCCCCCCS
T/C [5]: 109 % of control
T/C [1]: 105 % of control
T/C [2]: 101 % of control

O=c1cn[nH]c(=O)[nH]1
T/C (dose: 110.0 mg/kg/injection, schedule: Q01DX011 (ip), vehicle: carboxymethylcellulose (CMC)): 72 % of control
T/C (dose: 220.0 mg/kg/injection, schedule: Q01DX011 (ip), vehicle: carboxymethylcellulose (CMC)): 89 % of control
T/C (dose: 440.0 mg/kg/injection, schedule: Q01DX011 (ip), vehicle: carboxymethylcellulose (CMC)): 96 % of control

OCCc1ccccc1
T/C (dose: 62.0 mg/kg/injection, schedule: Q01DX011 (ip), vehicle: carboxymethylcellulose (CMC)): 83 % of control
T/C (dose: 125.0 mg/kg/injection, schedule: Q01DX011 (ip), vehicle: carboxymethylcellulose (CMC)): 63 % of control
T/C [8]: 57 % of control
T/C [7]: 51 % of control

c1ccc(CSc2ncnc3nc[nH]c23)cc1
T/C [9]: 118 % of control
T/C (dose: 10.0 mg/kg/injection, schedule: Q01DX011 (ip), vehicle: carboxymethylcellulose (CMC)): 90 % of control
T/C (dose: 15.0 mg/kg/injection, schedule: Q01DX011 (ip), vehicle: carboxymethylcellulose (CMC)): 109 % of control
T/C [4]: 91 % of control

O=c1[nH]cc(N(CCCl)CCCl)c(=O)[nH]1
T/C (dose: 0.21 mg/kg/injection, schedule: Q01DX011 (ip), vehicle: carboxymethylcellulose (CMC)): 87 % of control
T/C (dose: 0.42 mg/kg/injection, schedule: Q01DX011 (ip), vehicle: carboxymethylcellulose (CMC)): 99 % of control
T/C (dose: 0.42 mg/kg/injection, schedule: Q01DX011 (ip), vehicle: saline): 53 % of control
T/C (dose: 0.85 mg/kg/injection, schedule: Q01DX011 (ip), vehicle: carboxymethylcellulose (CMC)): 36 % of control
T/C (dose: 0.85 mg/kg/injection, schedule: Q01DX011 (ip), vehicle: saline): 47 % of control
T/C (dose: 1.3 mg/kg/injection, schedule: Q01DX011 (ip), vehicle: saline): 20 % of control
T/C (dose: 1.7 mg/kg/injection, schedule: Q01DX011 (ip), vehicle: saline): 13 % of control
